Laboratory results published in patent US9475789B2, “Use of polyenylpyrrole derivatives for treating inflammation” (WELLHEAD BIOLOGICAL TECHNOLOGY CORP., priority 2014, dated 2016).

Assays:
RAW 264.7 cells = test: AlamarBlue assay for cell viability; format: cell-based, murine; conditions: Mus musculus, RAW264.7, cytotoxicity against RAW 264.7 cells, 24 h treatment
Protocol: RAW 264.7 cells were seeded at a density of 5000 cells in 100 μl RPMI 1640 medium with 10% heat-inactivated FBS per well in 96-well flat-bottom plates and incubated for 24 h at 37° C. in a 5% CO2 incubator. Cells were incubated with tested samples for 24 h and the AlamarBlue® assay was used to determine the cytotoxicity of the test samples. The procedure was conducted following the protocol described in the manufacture's instruction (AbD Serotec Ltd).
The aim of this study is to identify non-toxic polyenylpyrrole derivatives which can be used as anti-inflammatory agents. Compounds 1a-n were evaluated for their cytotoxicities against the murine macrophages cell line RAW 264.7 after 24 h treatment.

TNF-α = TNF-α ELISA, LPS-activated peritoneal macrophages; format: cell-based, C57BL/6 mice; conditions: LPS 1 μg/ml 24 h
Protocol: (§1) (A) J774A.1 macrophages (4×10^5/ml), (B) peritoneal macrophages (4×10^5/ml), and (C) JAWSII dendritic cells (4×10^5/ml) were incubated with compound 1h or DMSO for 30 min followed by stimulating with LPS (1 μg/ml) for 24 h, then IL-6 and TNF-α concentration in culture medium were assayed by ELISA. The data are expressed as the mean±SD for three separate experiments. *, **, and *** indicate a significant difference at the level of p<0.05, p<0.01, p<0.001 respectively compared to LPS group.
(§2) The effects of tested samples on IL-1β, TNF-α and IL-6 production were measured by ELISA according to the manufacturer's instruction. In brief, 50 μl of biotinylated antibody reagent and 50 μl of supernatant were added to an anti-mouse IL-1β, TNF-α and IL-6 precoated stripwell plate, and incubated at room temperature for 2 h. After washing the plate three times with washing buffer, 100 μl of diluted streptavidin-HRP concentrate was added to each well and incubated at room temperature for 30 min. The washing process was repeated; then 100 μl of a premixed tetramethylbenzidine substrate solution was added to each well and developed at room temperature in the dark for 30 min. Following the addition of 100 μl of stop solution to each well to stop the reaction, the absorbance of the plate was measured by a microplate reader at 450 nm wavelength.

IL-6 [1] = test: IL-6 ELISA, LPS-activated J774A.1 macrophages; format: cell-based, murine; conditions: J774A.1 cells, LPS 1 μg/ml 24 h
Protocol: as §1, §2

ERK1/2, JNK1/2, p38 [2] = test: Western blot of MAPK phosphorylation, LPS-activated J774A.1 macrophages; format: cell-based, murine; conditions: LPS-activated J774A.1, LPS 20 min
Protocol: (§3) In (A), RAW 264.7 macrophages (5×10^5/ml) were incubated with compound 1h (20 μM), N-acetyl cysteine (NAC; 10 mM) or DMSO (vehicle) for 30 min followed by LPS (1 μg/ml) stimulating for the indicated time, then ROS levels were measured by detection of the fluorescence intensity of the fluorophore carboxyl-DCF and expressed relative to those at time zero. In (B), RAW 264.7 macrophages (5×10^5/ml) were incubated with compound 1h (20 μM) or DMSO for 30 min followed by LPS (1 μg/ml) stimulating for 0-60 min, then the phosphorylation levels of ERK1/2, JNK1/2, p38 were analyzed by Western blot. In (C), J774A.1 macrophages (5×10^5/ml) were incubated with compound 1h or DMSO for 30 min followed by LPS (1 μg/ml) stimulating for 20 min, then the phosphorylation levels of ERK1/2, JNK1/2, p38 were analyzed by Western blot.
(§4) Whole cell lysates were separated by SDS-PAGE and electrotransferred to a PVDF membrane. The membranes were incubated in blocking solution—5% nonfat milk in phosphate buffered saline with 0.1% Tween 20—at room temperature for 1 h. Each membrane was incubated with a specific primary antibody at room temperature for 2 h. After washing three times in PBS with 0.1% Tween 20, the membrane was incubated with an HRP-conjugated secondary antibody directed against the primary antibody. The membrane was developed by an enhanced chemiluminescence Western blot detection system.

proIL-1β = test: Western blot of proIL-1β, LPS-activated J774A.1 macrophages; format: cell-based, mouse; conditions: compound 30 min, then LPS 6 h
Protocol: (A) J774A.1 macrophages (1×10^6/ml) and (B) peritoneal macrophages (1×10^5/ml) were incubated with compound 1h for 30 min followed by LPS (1 μg/ml) stimulating for 5.5 h, then the cells were stimulated with ATP (5 mM) for an additional 30 min. The IL-1β in the culture medium was measured by ELISA and the expression of active caspase-1 (p10) was measured by Western blot. In (C) and (D), J774A.1 macrophages (1×10^6/ml) were incubated with LPS (1 μg/ml) for 5.5 h, then cells were incubated with compound 1h for 30 min followed by stimulating with ATP (5 mM) for an additional 30 min. The IL-1β and IL-6 in the culture medium were measured by ELISA and the expression of active caspase-1 (p10) was measured by Western blot. In (E), J774A.1 macrophages (1×10^6/ml) were incubated with compound 1h for 30 min followed by LPS (1 μg/ml) stimulating for 6 h. The expression of NLRP3 and proIL-1β were measured by Western blot.
as §4, with “The membrane was developed by an enhanced chemiluminescence Western blot detection system.” left out

ERK1/2, JNK1/2, p38 [3] = test: Western blot of MAPK phosphorylation, LPS-activated RAW 264.7 macrophages; format: cell-based, murine; conditions: compound 1h 20 μM
Protocol: as §3, §4

IL-6 [4] = test: IL-6 ELISA, LPS-activated JAWSII dendritic cells; format: cell-based, murine; conditions: LPS 1 μg/ml 24 h
Protocol: as §1, §2

O=c1cc(O)cc(/C=C/C=C/C=C/C=C/c2[nH]ccc2Cl)o1 [Compound 1h]
IC50 (RAW 264.7 cells): > 100 µM
secretion of TNF-α (TNF-α): reduced
secretion of IL-6 (IL-6 [1]): reduced
phosphorylation levels of ERK1/2, JNK1/2, p38 (ERK1/2, JNK1/2, p38 [2]): confirmed
LPS-induced proIL-1β expression (proIL-1β): inhibited LPS-induced proIL-1β expression in a dose-dependent fashion
phosphorylation level of ERK1/2 (ERK1/2, JNK1/2, p38 [3]): inhibited
phosphorylation level of JNK1/2 (ERK1/2, JNK1/2, p38 [3]): inhibited
phosphorylation level of p38 (ERK1/2, JNK1/2, p38 [3]): inhibited
secretion of IL-6 (IL-6 [4]): also reduced
